The results in this text go back to PubChem BioAssay AID206 (DTP/NCI, 2004).

Structures are written as SMILES. Where “and” joins values, the source holds several entries; their conditions need not be identical. Equal values may be shown once. Records with an inconclusive call do not appear.

For the assay, the system named is nude mice, HT29 intrarenal xenograft, tumor weight T/C. Kind of assay: NCI In Vivo Anticancer Drug Screen. Data for tumor model HT29;CX-1 Human Adenocarcinoma (MER+) (intrarenal inoculation) in NU/NU Swiss (nude) mice. As to conditions: endpoint: mean tumor weight change, higher = larger tumour. The method in brief: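 Compounds were given to mice carrying transplantable tumors; a vehicle-dosed group served as control. The endpoint measured in each group was compared as a T/C quotient.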

[1] abbreviates: dose: 75.0 mg/kg/injection, schedule: Q04DX004 (sc), vehicle: saline.
Setting [2] is: dose: 300.0 mg/kg/injection, schedule: Q04DX004 (sc), vehicle: Klucel (hydroxypropylcellulose) (HPC).
[3] abbreviates: dose: 25.0 mg/kg/injection, schedule: Q01DX010 (sc), vehicle: saline.
The mark [4] stands for this setting: dose: 150.0 mg/kg/injection, schedule: Q04DX004 (sc), vehicle: saline with Tween-80.
The mark [5] stands for this setting: dose: 300.0 mg/kg/injection, schedule: Q04DX004 (sc), vehicle: saline with Tween-80.
The mark [6] stands for this setting: dose: 600.0 mg/kg/injection, schedule: Q04DX004 (sc), vehicle: saline with Tween-80.
Where [7] appears, read: dose: 50.0 mg/kg/injection, schedule: Q04DX004 (sc), vehicle: saline with Tween-80.
[8] abbreviates: dose: 100.0 mg/kg/injection, schedule: Q04DX004 (sc), vehicle: saline with Tween-80.
Where [9] appears, read: dose: 200.0 mg/kg/injection, schedule: Q04DX004 (sc), vehicle: saline with Tween-80.
Setting [10] is: dose: 600.0 mg/kg/injection, schedule: Q04DX004 (sc), vehicle: Klucel (hydroxypropylcellulose) (HPC).
Where [11] appears, read: dose: 0.5 mg/kg/injection, schedule: Q04DX004 (sc), vehicle: saline + alcohol.
The mark [12] stands for this setting: dose: 1.0 mg/kg/injection, schedule: Q04DX004 (sc), vehicle: saline + alcohol.

`CCc1c(CC(=O)O)c2cc(C)ccc2n1Cc1ccc(Cl)cc1`: the T/C runs as follows: (dose: 100.0 mg/kg/injection, schedule: Q04DX004 (sc), vehicle: Klucel (hydroxypropylcellulose) (HPC)) 77 % of control; (dose: 200.0 mg/kg/injection, schedule: Q04DX004 (sc), vehicle: Klucel (hydroxypropylcellulose) (HPC)) 74 % of control; (dose: 400.0 mg/kg/injection, schedule: Q04DX004 (sc), vehicle: Klucel (hydroxypropylcellulose) (HPC)) 86 % of control; (dose: 800.0 mg/kg/injection, schedule: Q04DX004 (sc), vehicle: Klucel (hydroxypropylcellulose) (HPC)) 97 % of control.

In the case of `CC1C=NNC1=O` (configuration not stated), the T/C was 91 % of control (dose: 200.0 mg/kg/injection, schedule: Q01DX010 (sc), vehicle: saline with Tween-80); 64 % of control (dose: 400.0 mg/kg/injection, schedule: Q01DX010 (sc), vehicle: saline with Tween-80); 105 % of control (dose: 800.0 mg/kg/injection, schedule: Q01DX010 (sc), vehicle: saline with Tween-80).

With `COc1cc(NCCCCCCCNC(C)C)c2nccc(C)c2c1`, the T/C is, setting by setting: (dose: 18.7 mg/kg/injection, schedule: Q04DX004 (sc), vehicle: saline) 56 % of control; (dose: 37.5 mg/kg/injection, schedule: Q04DX004 (sc), vehicle: saline) 85 % of control; under setting [1], 71 % of control.

Regarding `O=C1C(O)=C(c2ccccc2)C(=O)C(O)=C1c1ccccc1`, the T/C under setting [1] was 95 % of control and the T/C (dose: 150.0 mg/kg/injection, schedule: Q04DX004 (sc), vehicle: saline) is 60 % of control.

In the case of `CN(C)CCN1C(=O)c2cccc3cc(N)cc(c23)C1=O`, the T/C (dose: 64.0 mg/kg/injection, schedule: Q04DX004 (sc), vehicle: saline with Tween-80) was 70 % of control.

Consider `O=S(=O)(O)O`, for which the T/C (dose: 75.0 mg/kg/injection, schedule: Q04DX004 (sc), vehicle: Klucel (hydroxypropylcellulose) (HPC)) is 86 % of control; the T/C (dose: 150.0 mg/kg/injection, schedule: Q04DX004 (sc), vehicle: Klucel (hydroxypropylcellulose) (HPC)) was 116 % of control; the T/C under setting [2] is 65 % of control.

On to `OCCN1CCN(CC/C=C2/c3ccccc3Sc3ccc(Cl)cc32)CC1`, for which the T/C is, setting by setting: (dose: 25.0 mg/kg/injection, schedule: Q04DX004 (sc), vehicle: saline) 160 % of control; (dose: 50.0 mg/kg/injection, schedule: Q04DX004 (sc), vehicle: saline) 87 % of control; (dose: 100.0 mg/kg/injection, schedule: Q04DX004 (sc), vehicle: saline) 82 % of control; (dose: 200.0 mg/kg/injection, schedule: Q04DX004 (sc), vehicle: saline) 40 % of control.

Take `COC1N(C2CC(O)C(CO)O2)C(=O)NC(=O)C1(F)Br` (configuration not stated): under setting [3], the T/C is 28 % of control.

With `C[CH2][Ge]1([CH2]C)[CH2]CC2(CCN(CCCN(C)C)C2)C[CH2]1`, for the setting “dose: 50.0 mg/kg/injection, schedule: Q01DX010 (sc), vehicle: saline”, the T/C was 99 % of control.

In the case of `CC(=O)N(C)O`, the T/C was 88 % of control under setting [4], 71 % of control under setting [5] and 45 % of control under setting [6].

Regarding `OC1OC2COC(c3ccccc3)OC2C(O)C1O` (configuration not stated), the T/C is 94 % of control (dose: 200.0 mg/kg/injection, schedule: Q04DX004 (sc), vehicle: water); 118 % of control (dose: 400.0 mg/kg/injection, schedule: Q04DX004 (sc), vehicle: water); 87 % of control (dose: 800.0 mg/kg/injection, schedule: Q04DX004 (sc), vehicle: water); 118 % of control (dose: 1600.0 mg/kg/injection, schedule: Q04DX004 (sc), vehicle: water).

For `Nc1nc2ccc(NCc3ccc(C(=O)NC(CCC(=O)O)C(=O)O)cc3)cc2c(=O)[nH]1` (configuration not stated), the T/C was 36 % of control under setting [7]; 46 % of control and 50 % of control under setting [8]; 16 % of control and 29 % of control under setting [9].

As to `Nc1n[n+](-c2ccc(Cl)cc2)no1`, the T/C (dose: 25.0 mg/kg/injection, schedule: Q04DX004 (sc), vehicle: water) was 95 % of control; the T/C (dose: 50.0 mg/kg/injection, schedule: Q04DX004 (sc), vehicle: water) was 121 % of control; the T/C (dose: 100.0 mg/kg/injection, schedule: Q04DX004 (sc), vehicle: water) was 102 % of control.

Regarding `CC1=C(/C=C/C(C)=C/C=C/C(C)=C/C=O)C(C)(C)CCC1`, the T/C is, setting by setting: under setting [4], 61 % of control; under setting [5], 62 % of control; under setting [6], 67 % of control.

Regarding `O/N=C/c1ccccc1O.O/N=C/c1ccccc1O.[Cu]`, the T/C (dose: 25.0 mg/kg/injection, schedule: Q04DX004 (sc), vehicle: saline with Tween-80) was 76 % of control; the T/C under setting [7] was 39 % of control; the T/C under setting [8] was 43 % of control; the T/C under setting [9] was 61 % of control.

For `c1cnc2ncncc2n1`, the T/C by setting is: (dose: 25.0 mg/kg/injection, schedule: Q01DX010 (sc), vehicle: saline with Tween-80) 62 % of control; (dose: 50.0 mg/kg/injection, schedule: Q01DX010 (sc), vehicle: saline with Tween-80) 70 % of control; (dose: 100.0 mg/kg/injection, schedule: Q01DX010 (sc), vehicle: saline with Tween-80) 28 % of control.

`COC1/C=C/O[C@@]2(C)Oc3c(C)c(O)c4c(O)c(cc(O)c4c3C2=O)NC(=O)/C(C)=C\C=C\[C@H](C)C(O)[C@@H](C)[C@@H](O)[C@@H](C)[C@H](OC(C)=O)[C@@H]1C` (some centres not stated): the T/C (dose: 150.0 mg/kg/injection, schedule: Q04DX004 (sc), vehicle: suspension in saline) is 72 % of control and the T/C (dose: 300.0 mg/kg/injection, schedule: Q04DX004 (sc), vehicle: suspension in saline) is 69 % of control.

On to `CN(C)C(=O)SC1=C(c2c(Cl)cccc2Cl)C(=O)c2ccccc21`, for which the T/C under setting [2] was 95 % of control and the T/C under setting [10] is 158 % of control.

For `COc1cccc2c1C(=O)c1c(O)c3c(c(O)c1C2=O)CC(O)(C(=O)CO)CC3OC1CC(N)C(O)C(C)O1` (configuration not stated), the T/C (dose: 48.0 mg/kg/injection, schedule: Q01DX010 (sc), vehicle: saline) is 90 % of control.

For `CO[C@H]1Nc2c(ccc(C)c2O)C(=O)N2C=C(/C=C/C(N)=O)C[C@@H]12`, the T/C is 98 % of control under setting [11] and 54 % of control under setting [12].

As to `CCC/C=C/C=C/C(=O)OC1/C(=C/C(=O)OC)CC2CC(C(C)O)OC(=O)CC(O)CC3CC(OC(C)=O)C(C)(C)C(O)(CC4C/C(=C/C(=O)OC)CC(/C=C/C(C)(C)C1(O)O2)O4)O3` (configuration not stated), the T/C was 95 % of control (dose: 0.25 mg/kg/injection, schedule: Q04DX004 (sc), vehicle: saline + alcohol); 110 % of control under setting [11]; 33 % of control under setting [12]; 47 % of control (dose: 2.0 mg/kg/injection, schedule: Q04DX004 (sc), vehicle: saline + alcohol); 53 % of control (dose: 4.0 mg/kg/injection, schedule: Q04DX004 (sc), vehicle: saline + alcohol); 88 % of control (dose: 8.0 mg/kg/injection, schedule: Q04DX004 (sc), vehicle: saline + alcohol).

Take `CC(C#N)(C#N)N=Nc1ccc(Cl)cc1Cl`: the T/C under setting [9] is 116 % of control and the T/C (dose: 1600.0 mg/kg/injection, schedule: Q04DX004 (sc), vehicle: saline with Tween-80) is 106 % of control.

With `O=c1[nH]cc(F)c(=O)[nH]1`, the T/C by setting is: (dose: 6.25 mg/kg/injection, schedule: Q01DX010 (sc), vehicle: saline) 160 % of control; (dose: 12.5 mg/kg/injection, schedule: Q01DX010 (sc), vehicle: saline) 101 % of control; (dose: 20.0 mg/kg/injection, schedule: Q01DX010 (sc), vehicle: saline) 87 % of control and 107 % of control; under setting [3], 86 % of control; (dose: 40.0 mg/kg/injection, schedule: Q01DX010 (sc), vehicle: saline) 46 % of control; (dose: 50.0 mg/kg/injection, schedule: Q04DX004 (ip), vehicle: saline) 34 % of control. Besides, the T/C by setting is: (dose: 75.0 mg/kg/injection, schedule: Q04DX004 (ip), vehicle: saline) 23 % of control; (dose: 80.0 mg/kg/injection, schedule: Q01DX010 (sc), vehicle: saline) 59 % of control.

On to `C/C(=N\NC(N)=O)c1cccc(/C(C)=N/NC(N)=O)n1`, for which the T/C was 106 % of control under setting [9] and 108 % of control (dose: 400.0 mg/kg/injection, schedule: Q04DX004 (sc), vehicle: saline with Tween-80).

For the compound `Cc1cc(Nc2ccc3c(c2)OCO3)c2cc3c(cc2n1)OCO3`, the T/C by setting is: under setting [2], 79 % of control; under setting [10], 198 % of control.
